Results: patent US12065416B2, “cGAS antagonist compounds” (IMMUNESENSOR THERAPEUTICS, INC., priority 2016, dated 2024)

Columns and labels:
[1] = system: cGAS activity in THP1 cells; assay: Cellular assay: ISRE-Gaussia luciferase reporter THP1 cells transfected with ISD (Interferon Stimulatory DNA); assay type: cell-based; conditions: Homo sapiens, THP-1; ISRE-Gaussia luciferase reporter THP1 cells transfected with 2 μg/mL ISD, 16 hours; read-out: THP1-ISD (Inhibition of cGAS activity in THP1 cells, IC50)
Description: (§1) A reporter THP1 cell line harboring a gene encoding Gaussia Luciferase under the control of 5 tandem repeats of interferon-stimulated response elements (ISRE) was used to test inhibition of cGAS activity by synthetic compounds in human cells. These cells were plated on 96-well plates at 0.3×10^6/well and incubated with various concentrations of compounds or DMSO for 5 min, followed by transfection of 2 μg/mL of ISD (Interferon Stimulatory DNA, a 45 bp DNA oligo) or mock transfected using lipofectamine 2000 (Life Technology) method, according to manufacturer's instructions. 16 hours later, 15 μL of the media from each well is transferred to a new plate, 50 μL of solution containing 50 mM Hepes-NaOH, 50 mM NaCl, 10 mM EDTA, 1 μM of coeleanterazine was added to each well and luminescence was measured immediately. Fold increase in luminescence compared to mock transfection is plotted against concentrations of each compound, and IC50 is calculated using Graphpad. To evaluate the specificity of a compound, the same procedure was performed except that cells were transfected with 2 μg/mL poly(I:C) or infected with Sendai Virus (SeV) at 50 Unit/mL, which are known to activate the RIG-I-MAVS pathway. A specific inhibitory compound should inhibit interferon induction by DNA but have minimal effect on poly(I:C) or Sendai virus induced interferon reporter gene expression.

[2] = system: RIG-I-MAVS pathway; assay: Specificity assay: ISRE reporter THP1 cells infected with Sendai Virus (SeV); assay type: cell-based; conditions: Homo sapiens, THP-1; ISRE-Gaussia luciferase reporter THP1 cells infected with Sendai Virus (SeV) at 50 Unit/mL
Description: as §1

[3] = molecular target: T1, recombinant cGAS (aa147-522) (Homo sapiens, UniProt Q8N884); assay: In vitro assay for inhibition of cGAS activity (ATP consumption, Kinase Glo); assay type: biochemical; conditions: 37° C. 20 minutes, read-out: Activity (Inhibition of cGAS enzyme activity in vitro, IC50)
T1 construct: recombinant cGAS (aa147-522); His6-SUMO (N, cleaved yes); made in house; host or cells: E. coli BL21/pLys
Description: cDNA encoding full-length or amino acids 147-520 of human cGAS is inserted into a modified pET28a vector containing an in-frame His6-SUMO tag. The E. coli strain BL21/pLys harboring the plasmid is induced with 0.5 mM IPTG at 18° C. overnight. His6-SUMO tag was removed by a SUMO proease following purification of the HiS-SUMO-cGAS as described previously (Sun et al, 2013, Science 339, 786).
A40 μL mixture containing 1.5 ng/μL of recombinant cGAS (aa147-522) and serial dilutions of a test compound or DMSO was added to a 96-well plate and incubated at 37° C. for 20 minutes. At the end of reaction, 20 μL of Kinase Glo (Promega) was added and chemiluminescence measured with a luminometer. Inhibitory effect of a compound is evaluated by plotting percentage of ATP consumption against logarithm of compound concentrations. IC50 value was calculated using Graphpad (Sigma).

T1 sequence (Q8N884 147-522): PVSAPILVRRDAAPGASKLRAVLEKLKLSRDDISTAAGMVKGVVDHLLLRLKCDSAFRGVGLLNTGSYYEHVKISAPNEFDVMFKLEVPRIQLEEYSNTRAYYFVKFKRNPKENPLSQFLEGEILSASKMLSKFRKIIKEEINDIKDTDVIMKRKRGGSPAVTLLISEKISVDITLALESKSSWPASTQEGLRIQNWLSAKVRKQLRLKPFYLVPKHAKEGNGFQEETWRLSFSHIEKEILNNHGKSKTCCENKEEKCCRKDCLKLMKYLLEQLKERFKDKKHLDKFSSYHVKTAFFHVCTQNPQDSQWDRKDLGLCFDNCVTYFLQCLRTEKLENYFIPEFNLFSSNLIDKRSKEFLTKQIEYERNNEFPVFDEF

| IC50 [1] [nM] | IC50 [3] [nM] | SMILES | IC50 [2] [nM] |
| --- | --- | --- | --- |
| 2500 to 10000 | ≤ 500 | Cc1ncc(COc2cc(/C=C3\Sc4ncccc4C3=O)c(Br)cc2O)cn1 [Ex114] |  |
| 2500 to 10000 | ≤ 500 | O=C1/C(=C/c2cc(OCc3cnc(Cl)nc3)c(O)cc2Br)Sc2ncccc21 [Ex115] |  |
| 2500 to 10000 | ≤ 500 | Nc1ncc(COc2cc(/C=C3\Sc4ncccc4C3=O)c(Br)cc2O)c(C2CC2)n1 [Ex117] |  |
| 2500 to 10000 | ≤ 500 | CN1C(=O)S/C(=C\c2cc(OCc3cccnc3)c(O)c(F)c2Br)C1=O [Ex106] |  |
| ≤ 2500 | ≤ 500 | CN1C(=O)S/C(=C\c2cc(OCCc3cnc(N)nc3)c(O)cc2Br)C1=O [Ex82] |  |
| 2500 to 10000 | ≤ 500 | O=C1/C(=C/c2cc(OCc3cccnc3)c(O)cc2Br)Sc2ncccc21 [Ex113] |  |
| 2500 to 10000 | ≤ 500 | CN1C(=O)S/C(=C\c2cc(OCc3cncnc3)c(O)c(F)c2Br)C1=O [Ex185] |  |
| 2500 to 10000 | ≤ 500 | CC(Oc1cc(/C=C2\Sc3ncccc3C2=O)c(Br)c(F)c1O)c1cnc(N)nc1 (centres unmarked) [Ex124] |  |
| 2500 to 10000 | ≤ 500 | COc1cc(/C=C2\SC(=S)N(C)C2=O)c(Br)cc1O [Ex38] |  |
| 2500 to 10000 | ≤ 500 | COc1cc(/C=c2\sc3nccn3c2=O)c(Br)cc1O [Ex16] |  |
| 2500 to 10000 | ≤ 500 | CN1C(=O)S/C(=C\c2cc(OCc3cccnc3)c(O)cc2Br)C1=O [Ex90] |  |
| ≤ 2500 | 500 to 10000 | CN1C(=O)S/C(=C\c2cc(OCc3ccncc3)c(O)cc2Br)C1=O [Ex53] |  |
| 2500 to 10000 | ≤ 500 | CN1C(=O)S/C(=C\c2cc(OCc3cnc(Cl)nc3N)c(O)c(F)c2Br)C1=O [ExA19] |  |
| 2500 to 10000 | 500 to 10000 | CN1C(=O)S/C(=C\c2cc(OCc3cccc4[nH]ccc34)c(O)cc2Br)C1=O [Ex67] |  |
| ≤ 2500 | 500 to 10000 | Nc1ncc(COc2cc(/C=c3\sc4nccn4c3=O)c(Br)cc2O)cn1 [ExA11] |  |
| ≤ 2500 | ≤ 500 | CCOc1cc(/C=C2\SC(=O)N(C)C2=O)c(Br)cc1O [Ex32] |  |
| 2500 to 10000 | 500 to 10000 | CN1C(=O)S/C(=C\c2cc(OCc3cnc(NCc4cccnc4)nc3)c(O)c(F)c2Br)C1=O [Ex189] |  |
| 2500 to 10000 | ≥ 10000 | CN1C(=O)S/C(=C\c2cc(O)c(O)cc2Br)C1=O [Ex11] |  |
| ≤ 2500 | 500 to 10000 | COc1cc(/C=C2\SC(=O)N(C)C2=O)c(Br)cc1NS(=O)(=O)c1cnc(N)s1 [Ex61] |  |
| ≥ 10000 | 500 to 10000 | CC(Oc1cc(/C=C2\SC(=O)N(C)C2=O)c(Br)c(F)c1O)c1cncnc1N (centres unmarked) [ExA18] |  |

| IC50 [1] [nM] | IC50 [3] [nM] | SMILES | IC50 [2] [nM] |
| --- | --- | --- | --- |
| 2500 to 10000 | 500 to 10000 | CN1C(=O)S/C(=C\c2cc(OCc3cnc(Cl)nc3)c(O)c(F)c2Br)C1=O [Ex107] |  |
| 2500 to 10000 | ≤ 500 | Cc1ncc(COc2cc(/C=C3\SC(=O)N(C)C3=O)c(Br)c(F)c2O)c(N)n1 [ExA5] |  |
| ≤ 2500 | 500 to 10000 | COc1cc(/C=C2\Sc3ccccc3C2=O)c(Br)cc1O [Ex44] |  |
| 2500 to 10000 | ≤ 500 | CCOc1cc(/C=C2\Sc3ncccc3C2=O)c(Br)cc1O [Ex112] |  |
| ≤ 2500 | ≤ 500 | COc1cc(/C=C2\SC(=O)N(C)C2=O)c(Cl)cc1O [Ex30] |  |
| ≥ 10000 | ≤ 500 | CN1C(=O)S/C(=C\c2cc(OCc3cncnc3N)c(O)c(F)c2Br)C1=O [ExA17] |  |
| ≤ 2500 | ≤ 500 | Cc1nc(N)ncc1COc1cc(/C=C2\Sc3ncccc3C2=O)c(Br)cc1O [Ex116] |  |
| 2500 to 10000 | 500 to 10000 | C#CCOc1cc(/C=C2\SC(=O)N(C)C2=O)c(Br)cc1O [Ex33] |  |
| ≥ 10000 | ≤ 500 | CN1C(=O)S/C(=C\c2cc(OCc3cnc([S+](C)[O-])nc3N)c(O)c(F)c2Br)C1=O (centres unmarked) [ExA14] |  |
| 2500 to 10000 | ≤ 500 | CC(Oc1cc(/C=C2\Sc3ncc(F)cc3C2=O)c(Br)c(F)c1O)c1cnc(N)nc1 (centres unmarked) [ExA13] |  |
| 2500 to 10000 | 500 to 10000 | CN1C(=O)S/C(=C\c2cc(OCC(=O)c3cnc(N)nc3)c(O)c(F)c2Br)C1=O [ExA10] |  |
|  | 500 to 10000 | COc1cc(/C=C2\SC(=O)N(C)C2=O)c(Br)cc1Oc1ccnc2ccccc12 [Ex204] |  |
|  | 500 to 10000 | COc1nc(SC)ncc1COc1cc(/C=C2\SC(=O)N(C)C2=O)c(Br)cc1O [Ex99] |  |
|  | ≥ 10000 | COc1cc(/C=c2\sc3ncc(C)n3c2=O)c(Br)cc1O [Ex17] |  |
|  | 500 to 10000 | CN1C(=O)S/C(=C\c2cc(OCc3cncc(NC(=O)c4cccnc4)c3)c(O)cc2Br)C1=O [Ex224] |  |
| 2500 to 10000 | ≤ 500 | CC(Oc1cc(/C=C2\Sc3ncccc3C2=O)c(Br)cc1O)c1cnc(NCCO)nc1 (centres unmarked) [ExA9] |  |
|  | 500 to 10000 | CN1C(=O)S/C(=C\c2cc(OCC(=O)Nc3nncs3)c(O)c(F)c2Br)C1=O [ExB1] |  |
|  | ≥ 10000 | CN1C(=O)S/C(=C\c2cc(OCc3cncc(NCc4ccccn4)c3)c(O)cc2Br)C1=O [Ex227] |  |
|  | ≤ 500 | O=C1/C(=C/c2ccc(O)cc2Br)Sc2ncccc21 [Ex71] |  |
|  | 500 to 10000 | CN1C(=O)S/C(=C\c2cc(OCc3cnc(S(C)(=O)=O)nc3Cl)c(O)cc2Br)C1=O [Ex221] |  |

| IC50 [1] [nM] | IC50 [3] [nM] | SMILES | IC50 [2] [nM] |
| --- | --- | --- | --- |
|  | 500 to 10000 | CC(Oc1cc(/C=C2\SC(=O)N(C)C2=O)c(Br)c(F)c1O)c1cncnc1 (centres unmarked) [Ex192] |  |
|  | ≥ 10000 | CN1C(=O)S/C(=C\c2cc(Oc3ccncc3)c(O)cc2Br)C1=O [Ex230] |  |
|  | ≥ 10000 | CSc1ncncc1C(=O)C(C)Oc1cc(/C=C2\SC(=O)N(C)C2=O)c(Br)c(F)c1O (centres unmarked) [ExB36] |  |
|  | 500 to 10000 | COc1cc(/C=C2\SC(=O)N(C)C2=O)c(Br)cc1Oc1nncs1 [Ex201] |  |
|  | 500 to 10000 | CN1C(=O)S/C(=C\c2cc(OCc3cnc(-n4cccn4)nc3)c(O)cc2Br)C1=O [Ex169] |  |
|  | 500 to 10000 | COc1cc(/C=c2\sc3n(c2=O)CCN=3)c(Cl)cc1O [Ex41] |  |
|  | ≥ 10000 | O=C1NC(=O)/C(=C/c2c[nH]cn2)S1 [Ex6] |  |
|  | 500 to 10000 | CN1C(=O)S/C(=C\c2cc(OCC3CCN(C(=O)c4ccccc4)CC3)c(O)cc2Br)C1=O [Ex127] |  |
| ≥ 10000 | 500 to 10000 | CC(Oc1cc(/C=c2\sc3nccn3c2=O)c(Br)c(F)c1O)c1cnc(N)nc1 (centres unmarked) [ExA12] |  |
|  | 500 to 10000 | COc1cc(/C=c2\sc3n(c2=O)CCCN=3)c(Cl)cc1O [Ex43] |  |
|  | ≤ 500 | CC(Oc1cc(/C=C2\SC(=O)N(C)C2=O)c(Br)cc1O)c1cnc(N)nc1 (centres unmarked) [Ex84] |  |
|  | 500 to 10000 | CC(C)Nc1ncc(COc2cc(/C=C3\SC(=O)N(C)C3=O)c(Br)cc2O)cn1 [Ex150] |  |
| 2500 to 10000 | 500 to 10000 | CCN1C(=O)S/C(=C\c2cc(OC)c(O)cc2Br)C1=O [Ex39] |  |
|  | 500 to 10000 | COc1cc(/C=C2\Sc3ncccc3C2=O)c(Br)c(Br)c1O [Ex47] |  |
| 2500 to 10000 | ≥ 10000 | COc1cc(/C=C2\SC(=O)N(C)C2=O)c(Br)cc1NS(=O)(=O)c1ccccn1 [Ex21] |  |
|  | 500 to 10000 | Cc1nc([S+](C)[O-])nc(C)c1COc1cc(/C=C2\SC(=O)N(C)C2=O)c(Br)cc1O (centres unmarked) [Ex215] |  |
|  | ≤ 500 | O=C1/C(=C/c2cc(OCc3cnc(NCc4cccnc4)nc3)c(O)cc2Br)Sc2ncccc21 [Ex199] |  |
|  | 500 to 10000 | COc1cc(/C=C2\SC(=O)N(C)C2=O)c(C#N)cc1O [Ex205] |  |
| 2500 to 10000 | ≤ 500 | COc1cc(/C=C2\Sc3ncccc3C2=O)c(Br)cc1O [Ex45] |  |

| SMILES | IC50 [1] [nM] | IC50 [3] [nM] | IC50 [2] [nM] |
| --- | --- | --- | --- |
| Cc1nc(N)ncc1COc1cc(/C=C2\SC(=O)N(C)C2=O)c(Br)cc1O [Ex170] | ≤ 2500 | ≤ 500 | ≥ 10000 |
| CN1C(=O)S/C(=C\c2cc(OCc3cn(-c4ccncc4)nn3)c(O)cc2Br)C1=O [Ex233] | 2500 to 10000 | ≥ 10000 | ≥ 10000 |
| [2H]C([2H])(Oc1cc(/C=C2\SC(=O)N(C)C2=O)c(Br)cc1O)c1cnc(N)nc1 [ExB35] | ≤ 2500 | ≤ 500 | ≥ 10000 |
| CN1C(=O)S/C(=C\c2cc(OCc3ccnc4[nH]cnc34)c(O)cc2Br)C1=O [Ex68] | ≤ 2500 | ≤ 500 | ≥ 10000 |
| CN1C(=O)S/C(=C\c2cc(OCc3cnc(N4CCNCC4)nc3)c(O)cc2Br)C1=O [Ex165] | 2500 to 10000 | ≤ 500 | ≥ 10000 |
